{"source": "PubChem BioAssay AID1963435", "about": "(Molecular Pharmacology Branch, DTP, NCI, 2024)", "system": "PANC-1 complex spheroid growth, percent test/control", "test": "Anticancer human tumor PANC-1 cell line growth inhibition [Asc];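 for all read-outs here: spheroids exposed to agents for 7 days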;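 for viability, T/C: percent viability relative to DMSO vehicle wells taken as 100%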", "settings": "for IC50: curve of first compound; for viability, T/C: stronger effect = lower value", "summary_of_the_method": "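Spheroid model: tumor line + HUVEC + hMSC. Single agents and combinations; top conc. at/near clinical Cmax (10 microM if undetermined), half-log dilutions. DMSO stocks at 800-fold test concentration.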"}
{"compound": "Cc1nc(N2CCC3(CC2)COC(C)C3N)c(CO)nc1Sc1ccnc(N)c1Cl", "note": "(configuration not stated) + Cc1c(S(C)(=O)=O)c(-c2cc(F)cc(N3CCN(c4ccc(NS(=O)(=O)c5ccc(NC(CCN6CCC(C(=O)OCCCP(=O)(O)O)CC6)CSc6ccccc6)c(S(=O)(=O)C(F)(F)F)c5)cc4)CC3)c2)c(-c2ccc(Cl)cc2)n1C(C)C", "values": [{"measurement": "IC50", "setting": "second compound 0.0316 µM", "result": "> 3", "unit": "µM"}, {"measurement": "IC50", "setting": "second compound 0.1 µM", "result": "> 3", "unit": "µM"}, {"measurement": "IC50", "setting": "second compound 0.316 µM", "result": "> 3", "unit": "µM"}, {"measurement": "IC50", "setting": "second compound 1 µM", "result": "> 3", "unit": "µM"}, {"measurement": "IC50", "setting": "second compound 3.16 µM", "result": "> 3", "unit": "µM"}, {"measurement": "IC50", "setting": "second compound 10 µM", "result": "> 3", "unit": "µM"}, {"measurement": "viability, T/C", "setting": "second compound 0.0316 µM, first compound 0.00949 µM", "result": 87.6, "unit": "%"}, {"measurement": "viability, T/C", "setting": "second compound 0.0316 µM, first compound 0.03 µM", "result": 96.6, "unit": "%"}, {"measurement": "viability, T/C", "setting": "second compound 0.0316 µM, first compound 0.0949 µM", "result": 88.2, "unit": "%"}, {"measurement": "viability, T/C", "setting": "second compound 0.0316 µM, first compound 0.3 µM", "result": 94.1, "unit": "%"}, {"measurement": "viability, T/C", "setting": "second compound 0.0316 µM, first compound 0.949 µM", "result": 89.5, "unit": "%"}, {"measurement": "viability, T/C", "setting": "second compound 0.0316 µM, first compound 3 µM", "result": 95.2, "unit": "%"}, {"measurement": "viability, T/C", "setting": "second compound 0.1 µM, first compound 0.00949 µM", "result": 92.8, "unit": "%"}, {"measurement": "viability, T/C", "setting": "second compound 0.1 µM, first compound 0.03 µM", "result": 88.3, "unit": "%"}, {"measurement": "viability, T/C", "setting": "second compound 0.1 µM, first compound 0.0949 µM", "result": 83.3, "unit": "%"}, {"measurement": "viability, T/C", "setting": "second compound 0.1 µM, first compound 0.3 µM", "result": 90.1, "unit": "%"}, {"measurement": "viability, T/C", "setting": "second compound 0.1 µM, first compound 0.949 µM", "result": 87.8, "unit": "%"}, {"measurement": "viability, T/C", "setting": "second compound 0.1 µM, first compound 3 µM", "result": 84.7, "unit": "%"}, {"measurement": "viability, T/C", "setting": "second compound 0.316 µM, first compound 0.00949 µM", "result": 103, "unit": "%"}, {"measurement": "viability, T/C", "setting": "second compound 0.316 µM, first compound 0.03 µM", "result": 93.4, "unit": "%"}, {"measurement": "viability, T/C", "setting": "second compound 0.316 µM, first compound 0.0949 µM", "result": 89.8, "unit": "%"}, {"measurement": "viability, T/C", "setting": "second compound 0.316 µM, first compound 0.3 µM", "result": 87.6, "unit": "%"}, {"measurement": "viability, T/C", "setting": "second compound 0.316 µM, first compound 0.949 µM", "result": 91.8, "unit": "%"}, {"measurement": "viability, T/C", "setting": "second compound 0.316 µM, first compound 3 µM", "result": 86.7, "unit": "%"}, {"measurement": "viability, T/C", "setting": "second compound 1 µM, first compound 0.00949 µM", "result": 102, "unit": "%"}, {"measurement": "viability, T/C", "setting": "second compound 1 µM, first compound 0.03 µM", "result": 91.8, "unit": "%"}, {"measurement": "viability, T/C", "setting": "second compound 1 µM, first compound 0.0949 µM", "result": 85.9, "unit": "%"}, {"measurement": "viability, T/C", "setting": "second compound 1 µM, first compound 0.3 µM", "result": 84.5, "unit": "%"}, {"measurement": "viability, T/C", "setting": "second compound 1 µM, first compound 0.949 µM", "result": 88.2, "unit": "%"}, {"measurement": "viability, T/C", "setting": "second compound 1 µM, first compound 3 µM", "result": 85.5, "unit": "%"}, {"measurement": "viability, T/C", "setting": "second compound 3.16 µM, first compound 0.00949 µM", "result": 101, "unit": "%"}, {"measurement": "viability, T/C", "setting": "second compound 3.16 µM, first compound 0.03 µM", "result": 94.5, "unit": "%"}, {"measurement": "viability, T/C", "setting": "second compound 3.16 µM, first compound 0.0949 µM", "result": 86.2, "unit": "%"}, {"measurement": "viability, T/C", "setting": "second compound 3.16 µM, first compound 0.3 µM", "result": 92.9, "unit": "%"}, {"measurement": "viability, T/C", "setting": "second compound 3.16 µM, first compound 0.949 µM", "result": 84.6, "unit": "%"}, {"measurement": "viability, T/C", "setting": "second compound 3.16 µM, first compound 3 µM", "result": 77.8, "unit": "%"}, {"measurement": "viability, T/C", "setting": "second compound 10 µM, first compound 0.00949 µM", "result": 175, "unit": "%"}, {"measurement": "viability, T/C", "setting": "second compound 10 µM, first compound 0.03 µM", "result": 177, "unit": "%"}, {"measurement": "viability, T/C", "setting": "second compound 10 µM, first compound 0.0949 µM", "result": 161, "unit": "%"}, {"measurement": "viability, T/C", "setting": "second compound 10 µM, first compound 0.3 µM", "result": 161, "unit": "%"}, {"measurement": "viability, T/C", "setting": "second compound 10 µM, first compound 0.949 µM", "result": 164, "unit": "%"}, {"measurement": "viability, T/C", "setting": "second compound 10 µM, first compound 3 µM", "result": 147, "unit": "%"}]}
